Holding throughout (format): cell-based, mouse
In assay [1] the test system is α7 integrin (LacZ reporter in α7βgal+/− myoblasts). Kind of assay: Myoblast α7+/LacZ integrin FDG assay (Burkin assay in myoblasts, 96-well). The note with it: α7+/LacZ myoblasts, 96-well.
The test system of assay [2] is β-galactosidase in CMV-LacZ C2C12 myoblasts. Kind of assay: CMV-LacZ secondary screen in C2C12 myoblasts (β-Gal stabilizing assay). The note with it: CMV-LacZ C2C12 myoblasts. Put shortly:
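A secondary screen identifies compounds that stabilize β-gal independently of the native promoter, using CMV-LacZ C2C12 cells. Curves span 0.5–40 μM at six levels, in duplicate.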

The subject of assay [3] is α7 integrin (LacZ reporter in α7+/LacZ myotubes). Put plainly: Myotube α7 integrin FDG assay (Burkin assay in myotubes, 96-well). The note with it: myotubes.
The test system of assay [4] is β-galactosidase in CMV-LacZ C2C12 myotubes. Kind of assay: CMV-LacZ secondary screen in C2C12 myotubes (β-Gal stabilizing assay). The note with it: C2C12 CMV-LacZ myotubes, fold relative to DMSO. A digest of the protocol: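 Stable CMV-LacZ C2C12 clone; six-point curve 0.5–40 μM; duplicates.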

Structures are written as SMILES.

As to `Cc1cccc(NCC(=O)N/N=C\c2ccccn2)c1` [MLS000710288-01], the “Burkin Assay in Myoblasts, signal relative to DMSO” value worked out at 1.168 in assay [1] (0.5 uM); 1.305 in assay [1] (1 uM); 1.3928 in assay [1] (5 uM); 1.1778 in assay [1] (10 uM); 0.8681 in assay [1] (20 uM); 0.5963 in assay [1] (40 uM). Further, the “CMV-LACZ in Myoblasts (β-galactosidase activity relative to DMSO)” value in assay [2] (0.5 uM) is listed as 1.0338; in assay [2] (1 uM), 0.9325; in assay [2] (5 uM), 1.0737; in assay [2] (10 uM), 1.2515; in assay [2] (20 uM) it was 1.1193; in assay [2] (40 uM), 0.9063. Besides, the “Burkin Assay in Myotubes, α7 integrin LacZ reporter signal relative to DMSO” value in assay [3] (0.5 uM) is 1.076; in assay [3] (1 uM), 0.9575; in assay [3] (5 uM), 1.084; in assay [3] (10 uM) it was 0.9598; in assay [3] (20 uM) it was 1.024; in assay [3] (40 uM), 0.8202. For the same compound, the “CMV-LACZ in Myotubes, signal relative to DMSO” value is 1.0371 in assay [4] (0.5 uM); 1.1133 in assay [4] (1 uM); 1.0717 in assay [4] (5 uM); 1.1225 in assay [4] (10 uM); 0.9400 in assay [4] (20 uM); 0.8905 in assay [4] (40 uM).

Take `CC1CCCCC1NC(=O)CSc1nnc(COc2ccc(Cl)cc2)o1` (stereo not drawn) [MLS000948055-01]: the “Burkin Assay in Myoblasts, signal relative to DMSO” value is on record as 1.328 in assay [1] (0.5 uM); 1.053 in assay [1] (1 uM); 1.136 in assay [1] (5 uM); 0.8986 in assay [1] (10 uM); 0.8213 in assay [1] (20 uM); 0.5867 in assay [1] (40 uM). The “CMV-LACZ in Myoblasts (β-galactosidase activity relative to DMSO)” value is 0.7540 in assay [2] (0.5 uM); 0.9674 in assay [2] (1 uM); 1.0787 in assay [2] (5 uM); 1.0993 in assay [2] (10 uM); 0.5407 in assay [2] (20 uM); 0.5522 in assay [2] (40 uM). Moreover, the “Burkin Assay in Myotubes, α7 integrin LacZ reporter signal relative to DMSO” value in assay [3] (0.5 uM) came out at 1.067; in assay [3] (1 uM) it was 1.054; in assay [3] (5 uM), 0.9053; in assay [3] (10 uM), 0.8264; in assay [3] (20 uM), 0.98; in assay [3] (40 uM), 0.7514. Further, the “CMV-LACZ in Myotubes, signal relative to DMSO” value in assay [4] (0.5 uM) is reported as 1.0895; in assay [4] (1 uM), 0.9638; in assay [4] (5 uM) it was 1.2519; in assay [4] (10 uM), 1.1022; in assay [4] (20 uM) it was 1.2212; in assay [4] (40 uM), 1.0753.
